Test results taken from publication PMC6148290, “Endogenous metabolites of vitamin E limit inflammation by targeting 5-lipoxygenase” (Nature Communications, 2018).

Molecular target: T1, 5-LO (Homo sapiens, UniProt P09917)
T1 sequence (P09917 1-674): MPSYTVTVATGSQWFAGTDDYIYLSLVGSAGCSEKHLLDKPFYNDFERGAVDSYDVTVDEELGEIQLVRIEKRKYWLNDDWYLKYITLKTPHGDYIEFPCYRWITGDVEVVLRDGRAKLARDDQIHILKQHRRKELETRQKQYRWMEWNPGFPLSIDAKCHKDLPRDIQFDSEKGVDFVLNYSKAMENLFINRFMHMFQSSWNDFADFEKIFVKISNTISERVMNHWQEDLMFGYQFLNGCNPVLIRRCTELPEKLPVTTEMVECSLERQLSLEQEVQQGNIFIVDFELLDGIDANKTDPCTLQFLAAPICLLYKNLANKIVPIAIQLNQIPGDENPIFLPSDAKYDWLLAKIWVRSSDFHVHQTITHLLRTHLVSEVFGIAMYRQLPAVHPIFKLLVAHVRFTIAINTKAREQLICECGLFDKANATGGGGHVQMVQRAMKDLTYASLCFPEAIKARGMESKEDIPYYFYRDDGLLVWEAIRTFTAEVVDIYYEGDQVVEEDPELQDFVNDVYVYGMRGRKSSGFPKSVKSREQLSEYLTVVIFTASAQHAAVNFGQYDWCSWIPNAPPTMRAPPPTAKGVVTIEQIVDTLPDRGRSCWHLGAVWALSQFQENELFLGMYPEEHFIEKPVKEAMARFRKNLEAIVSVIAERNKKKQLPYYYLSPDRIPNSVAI
Assay: Activity of purified human recombinant 5-LO (cell-free)
Assay type: biochemical
Set-up: made in house; host or cells: E. coli Bl21 (DE3)
Method: E. coli Bl21 (DE3) cells were transformed with pT3–5LO plasmid to express human recombinant 5-LO, which was purified by affinity chromatography on an ATP-agarose column. In brief, E. coli was lysed in 50 mM triethanolamine/HCl pH 8.0 plus EDTA (5 mM), soybean trypsin inhibitor (60 µg/ml), phenylmethanesulphonyl fluoride (1 mM), dithiothreitol (1 mM), and lysozyme (1 mg/ml). After sonication (3 × 15 s), the homogenate was centrifuged at 10,000 × g for 15 min and the supernatant again at 40,000 × g for 70 min at 4 °C. The supernatant was applied to an ATP-agarose column (Sigma-Aldrich), and the column was washed with (i) PBS pH 7.4, 1 mM EDTA, (ii) 50 mM phosphate buffer pH 7.4, 0.5 M NaCl, 1 mM EDTA, and (iii) 50 mM phosphate buffer pH 7.4, 1 mM EDTA. 5-LO was eluted with 50 mM phosphate buffer pH 7.4, 1 mM EDTA, 20 mM ATP.
Purified 5-LO (0.5 µg) in PBS pH 7.4 containing EDTA (1 mM) and ATP (1 mM) was pre-incubated with LCMs for 10 min at 4 °C, pre-warmed for 30 s at 37 °C and 5-LO product formation was started by addition of AA (Sigma-Aldrich; 20 µM if not indicated otherwise) plus CaCl2 (2 mM). […] AA was added after incubation for 5 min on ice.

Question: With `Cc1c(C)c2c(c(C)c1O)CC[C@@](C)(CCCC(C)CCCC(C)CCCC(C)C(=O)O)O2` (stereo partly drawn) [4a, 13-((2R)-6-hydroxy-2,5,7,8-tetramethylchroman-2-yl)-2,6,10-trimethyltridecanoic acid] as the compound, how does the IC50 read?
Answer: The IC50 was 270 ± 10 nM.
